# Test system: HUVECs
# Assay: NO and ONOO^− release from HUVECs treated concomitantly with agent-treated oxLDL (Example 11, objective 2)
# Format: cell-based, human
# Conditions: oxLDL 11 mg/dL treated 30 min with agents 10 μM, 60 min exposure, calcium ionophore; in nM
# Protocol: Human umbilical vein endothelial cells (HUVECs) were obtained from healthy, female donors and isolated into primary, proliferating cell cultures (Clonetics, San Diego, Calif.). The cells were incubated in 95% air/5% CO2 at 37° C. and passaged by an enzymatic (trypsin) procedure. The confluent cells (4 to 5×10^5 cells/35 mm dish) were plated with minimum essential medium containing 3 mM L-arginine and 0.1 mM BH4 [(6R)-5,6,7,8-tetrahydrobiopterin]. Before experimental use, the cells (from second or third passage) were rinsed twice with Tyrode-HEPES buffer with 1.8 mM CaCl2.
# Concurrent measurements of NO and ONOO^− were performed with tandem electrochemical nanosensors combined into one working unit with a total diameter of 200-400 nm. Their design is based on previously developed and chemically modified carbon-fiber technology. […]
# The amperometric method (with a response time of 0.1 ms) provides a quantitative signal (current) that is directly proportional to changes (from basal levels) in NO or ONOO^− concentration. […] Basal NO or ONOO^− levels were measured by differential pulse voltammetry in separate experiments.
# All measurements of NO and ONOO^− were performed on intact endothelial cells. […] Cells will then be treated with calcium ionophore (to maximally stimulate the release of nitrous molecules) and monitored continuously for changes in amperometric current. […]
structure (smiles),measurement,value
"CC/C=C\C/C=C\C/C=C\C/C=C\C/C=C\C/C=C\CCC(=O)O [DHA, docosahexaenoic acid]",ONOO^− release,240 ± 27^

# Reference: US11446269B2, “Methods of reducing or preventing oxidation of small dense LDL or membrane polyunsaturated fatty acids” (Amarin Pharmaceuticals Ireland Limited, priority 2014, dated 2022)
